Experimental data as given in patent publication US12011421B2, “Curcuphenol compounds for increasing MHC-I expression” (Cava Healthcare Inc., priority 2013, dated 2024).

Key:
MHC-I = MHC-I expression in TC1/A9 murine lung tumor cells; format: cell-based; conditions: FIG. 11A
Protocol: (§1) Curcuphenol and four curcuphenol analogs (see FIG. 10) were synthesized and tested for the ability to increase MHC-I expression in TC1/A9 murine lung tumor cells. Toxicity was also measured by propidium iodide (PI) exclusion.

[1] = tested on: TC1/A9 murine lung tumor cells; assay: Cell toxicity in A9 cells by PI exclusion and intact cell number; format: cell-based; conditions: FIG. 11B
Protocol: as §1

Row | SMILES | MHC-I expression relative to controls (MHC-I) | toxicity by propidium iodide (PI) exclusion and intact cell number [1]
1 | CC(C)=CCC[C@H](C)c1ccc(C)cc1O (stereo in doubt) [curcuphenol, phenol,2-(1,5-dimethyl-4-hexenyl)-5-methyl-, (S)—] | significantly increasing MHC-I expression | acceptable levels of toxicity
2 | CC(C)=CCCCc1ccc(C)cc1O [PC-02/113] | significantly increasing MHC-I expression | acceptable levels of toxicity
